Results taken from PubChem BioAssay (NCI).
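Exposure lasted 48 hours, with cells grown in 96-well plates and compounds tested at five concentrations. At the TGI there is no net growth.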

Columns and labels:
Experiment in all cases: inhibition of tumour cell growth, NCI panel, 48 h
786-0 renal = tested on: 786-0 renal
A549 NSCLC = tested on: A549 NSCLC
ACHN renal = tested on: ACHN renal
CAKI-1 renal = tested on: CAKI-1 renal
CCRF-CEM leukemia = tested on: CCRF-CEM leukemia
COLO 205 colon = tested on: COLO 205 colon
DLD-1 colon = tested on: DLD-1 colon
EKVX NSCLC = tested on: EKVX NSCLC
HCC-2998 colon = tested on: HCC-2998 colon
HCT-116 colon = tested on: HCT-116 colon
HCT-15 colon = tested on: HCT-15 colon
HL-60(TB) leukemia = tested on: HL-60(TB) leukemia
HOP-18 NSCLC = tested on: HOP-18 NSCLC
HOP-62 NSCLC = tested on: HOP-62 NSCLC
HT29 colon = tested on: HT29 colon
IGROV1 ovarian = tested on: IGROV1 ovarian
K-562 leukemia = tested on: K-562 leukemia
KM12 colon = tested on: KM12 colon
KM20L2 colon = tested on: KM20L2 colon
LOX IMVI melanoma = tested on: LOX IMVI melanoma
LXFL 529 NSCLC = tested on: LXFL 529 NSCLC
M14 melanoma = tested on: M14 melanoma
M19-MEL melanoma = tested on: M19-MEL melanoma
MALME-3M melanoma = tested on: MALME-3M melanoma
MOLT-4 leukemia = tested on: MOLT-4 leukemia
NCI-H226 lung = tested on: NCI-H226 lung
NCI-H460 lung = tested on: NCI-H460 lung
NCI-H522 lung = tested on: NCI-H522 lung
OVCAR-3 ovarian = tested on: OVCAR-3 ovarian
OVCAR-4 ovarian = tested on: OVCAR-4 ovarian
OVCAR-5 ovarian = tested on: OVCAR-5 ovarian
OVCAR-8 ovarian = tested on: OVCAR-8 ovarian
RPMI-8226 leukemia = tested on: RPMI-8226 leukemia
RXF 393 renal = tested on: RXF 393 renal
RXF-631 renal = tested on: RXF-631 renal
SF-268 CNS = tested on: SF-268 CNS
SF-295 CNS = tested on: SF-295 CNS
SF-539 CNS = tested on: SF-539 CNS
SK-MEL-2 melanoma = tested on: SK-MEL-2 melanoma
SK-MEL-28 melanoma = tested on: SK-MEL-28 melanoma
SK-MEL-5 melanoma = tested on: SK-MEL-5 melanoma
SN12C renal = tested on: SN12C renal
SNB-19 CNS = tested on: SNB-19 CNS
SNB-75 CNS = tested on: SNB-75 CNS
SNB-78 CNS = tested on: SNB-78 CNS
SR leukemia = tested on: SR leukemia
SW-620 colon = tested on: SW-620 colon
U251 CNS = tested on: U251 CNS
UACC-257 melanoma = tested on: UACC-257 melanoma
UACC-62 melanoma = tested on: UACC-62 melanoma
UO-31 renal = tested on: UO-31 renal
XF 498 CNS = tested on: XF 498 CNS
A498 renal = tested on: A498 renal
DMS 114 small cell lung = tested on: DMS 114 small cell lung
DMS 273 small cell lung = tested on: DMS 273 small cell lung
HOP-92 NSCLC = tested on: HOP-92 NSCLC
NCI-H23 lung = tested on: NCI-H23 lung
SK-OV-3 ovarian = tested on: SK-OV-3 ovarian
TK-10 renal = tested on: TK-10 renal

In the case of `O=[N+]([O-])c1ccc(-c2noc(-c3ccccc3)c2C2=NCCN2)cc1`, the TGI (786-0 renal) is reported as over 100 µM, the TGI (A549 NSCLC) is reported as over 100 µM and the TGI (ACHN renal) is reported as over 100 µM. The TGI (CAKI-1 renal) was over 100 µM, the TGI (CCRF-CEM leukemia) was over 100 µM and the TGI (COLO 205 colon) was over 100 µM. The TGI (DLD-1 colon) was over 100 µM, the TGI (EKVX NSCLC) was over 100 µM and the TGI (HCC-2998 colon) was over 100 µM. For the same compound, the TGI (HCT-116 colon) was over 100 µM, the TGI (HCT-15 colon) was over 100 µM and the TGI (HL-60(TB) leukemia) was over 100 µM. It also gave a TGI (HOP-18 NSCLC) of over 100 µM, a TGI (HOP-62 NSCLC) of over 100 µM and a TGI (HT29 colon) of over 100 µM. The TGI (IGROV1 ovarian) was over 100 µM, the TGI (K-562 leukemia) was over 100 µM and the TGI (KM12 colon) was over 100 µM. For the same compound, the TGI (KM20L2 colon) was over 100 µM, the TGI (LOX IMVI melanoma) was over 100 µM and the TGI (LXFL 529 NSCLC) was over 100 µM. The TGI (M14 melanoma) was over 100 µM, the TGI (M19-MEL melanoma) was over 100 µM and the TGI (MALME-3M melanoma) was over 100 µM. The TGI (MOLT-4 leukemia) was over 100 µM, the TGI (NCI-H226 lung) was over 100 µM and the TGI (NCI-H460 lung) was over 100 µM. The TGI (NCI-H522 lung) was over 100 µM, the TGI (OVCAR-3 ovarian) was 90.8 µM and the TGI (OVCAR-4 ovarian) was over 100 µM. For the same compound, the TGI (OVCAR-5 ovarian) was over 100 µM, the TGI (OVCAR-8 ovarian) was over 100 µM and the TGI (RPMI-8226 leukemia) was over 100 µM. It also gave a TGI (RXF 393 renal) of over 100 µM, a TGI (RXF-631 renal) of over 100 µM and a TGI (SF-268 CNS) of over 100 µM. The TGI (SF-295 CNS) was over 100 µM, the TGI (SF-539 CNS) was over 100 µM and the TGI (SK-MEL-2 melanoma) was over 100 µM. For the same compound, the TGI (SK-MEL-28 melanoma) was over 100 µM, the TGI (SK-MEL-5 melanoma) was over 100 µM and the TGI (SN12C renal) was over 100 µM. The TGI (SNB-19 CNS) was over 100 µM, the TGI (SNB-75 CNS) was over 100 µM and the TGI (SNB-78 CNS) was over 100 µM. It also gave a TGI (SR leukemia) of over 100 µM, a TGI (SW-620 colon) of over 100 µM and a TGI (U251 CNS) of over 100 µM. It also gave a TGI (UACC-257 melanoma) of over 100 µM, a TGI (UACC-62 melanoma) of over 100 µM and a TGI (UO-31 renal) of over 100 µM. For the same compound, the TGI (XF 498 CNS) was over 100 µM.

Work on `CN1c2ccccc2NC(CC(=O)O)C2CC=CN21` (stereo unspecified) yielded a TGI (786-0 renal) of over 100 µM, a TGI (A498 renal) of over 100 µM and a TGI (A549 NSCLC) of over 100 µM. The TGI (ACHN renal) was over 100 µM, the TGI (CAKI-1 renal) was over 100 µM and the TGI (CCRF-CEM leukemia) was over 100 µM. It also gave a TGI (COLO 205 colon) of over 100 µM, a TGI (DMS 114 small cell lung) of over 100 µM and a TGI (DMS 273 small cell lung) of over 100 µM. It also gave a TGI (EKVX NSCLC) of over 100 µM, a TGI (HCT-15 colon) of over 100 µM and a TGI (HL-60(TB) leukemia) of over 100 µM. For the same compound, the TGI (HOP-18 NSCLC) was over 100 µM, the TGI (HOP-62 NSCLC) was over 100 µM and the TGI (HOP-92 NSCLC) was over 100 µM. It also gave a TGI (HT29 colon) of over 100 µM, a TGI (IGROV1 ovarian) of over 100 µM and a TGI (K-562 leukemia) of over 100 µM. For the same compound, the TGI (KM12 colon) was over 100 µM, the TGI (KM20L2 colon) was over 100 µM and the TGI (LOX IMVI melanoma) was over 100 µM. For the same compound, the TGI (LXFL 529 NSCLC) was over 100 µM, the TGI (M14 melanoma) was over 100 µM and the TGI (M19-MEL melanoma) was over 100 µM. The TGI (MALME-3M melanoma) was over 100 µM, the TGI (MOLT-4 leukemia) was over 100 µM and the TGI (NCI-H23 lung) was over 100 µM. The TGI (NCI-H460 lung) was over 100 µM, the TGI (NCI-H522 lung) was over 100 µM and the TGI (OVCAR-3 ovarian) was over 100 µM. It also gave a TGI (OVCAR-4 ovarian) of over 100 µM, a TGI (OVCAR-5 ovarian) of over 100 µM and a TGI (OVCAR-8 ovarian) of over 100 µM. For the same compound, the TGI (RPMI-8226 leukemia) was over 100 µM, the TGI (RXF 393 renal) was over 100 µM and the TGI (RXF-631 renal) was over 100 µM. The TGI (SF-268 CNS) was over 100 µM, the TGI (SF-295 CNS) was over 100 µM and the TGI (SF-539 CNS) was over 100 µM. The TGI (SK-MEL-2 melanoma) was over 100 µM, the TGI (SK-MEL-28 melanoma) was over 100 µM and the TGI (SK-MEL-5 melanoma) was over 100 µM. The TGI (SK-OV-3 ovarian) was over 100 µM, the TGI (SN12C renal) was over 100 µM and the TGI (SNB-19 CNS) was over 100 µM. For the same compound, the TGI (SNB-75 CNS) was over 100 µM, the TGI (SW-620 colon) was over 100 µM and the TGI (TK-10 renal) was over 100 µM. It also gave a TGI (U251 CNS) of over 100 µM, a TGI (UACC-257 melanoma) of over 100 µM and a TGI (UACC-62 melanoma) of over 100 µM. It also gave a TGI (UO-31 renal) of over 100 µM and a TGI (XF 498 CNS) of over 100 µM.

`CCCC(=O)c1c(NOC2OCC(OC(C)=O)C(OC(C)=O)C2OC(C)=O)nc(OC)n(C)c1=O` (stereo unspecified) showed a TGI (786-0 renal) of over 100 µM, a TGI (A498 renal) of over 100 µM and a TGI (A549 NSCLC) of over 100 µM. For the same compound, the TGI (ACHN renal) was over 100 µM, the TGI (CAKI-1 renal) was over 100 µM and the TGI (CCRF-CEM leukemia) was 19.1 µM. For the same compound, the TGI (COLO 205 colon) was over 100 µM, the TGI (DLD-1 colon) was over 100 µM and the TGI (DMS 114 small cell lung) was over 100 µM. The TGI (DMS 273 small cell lung) was over 100 µM, the TGI (EKVX NSCLC) was over 100 µM and the TGI (HCC-2998 colon) was over 100 µM. It also gave a TGI (HCT-116 colon) of over 100 µM, a TGI (HCT-15 colon) of over 100 µM and a TGI (HL-60(TB) leukemia) of 3.09 µM. The TGI (HOP-18 NSCLC) was over 100 µM, the TGI (HOP-62 NSCLC) was over 100 µM and the TGI (HOP-92 NSCLC) was over 100 µM. It also gave a TGI (HT29 colon) of over 100 µM, a TGI (IGROV1 ovarian) of over 100 µM and a TGI (K-562 leukemia) of 36 µM. The TGI (KM12 colon) was over 100 µM, the TGI (KM20L2 colon) was over 100 µM and the TGI (LOX IMVI melanoma) was over 100 µM. For the same compound, the TGI (LXFL 529 NSCLC) was over 100 µM, the TGI (M14 melanoma) was over 100 µM and the TGI (M19-MEL melanoma) was over 100 µM. It also gave a TGI (MALME-3M melanoma) of over 100 µM, a TGI (MOLT-4 leukemia) of over 100 µM and a TGI (NCI-H226 lung) of over 100 µM. It also gave a TGI (NCI-H23 lung) of over 100 µM, a TGI (NCI-H460 lung) of over 100 µM and a TGI (OVCAR-3 ovarian) of over 100 µM. It also gave a TGI (OVCAR-4 ovarian) of over 100 µM, a TGI (OVCAR-5 ovarian) of over 100 µM and a TGI (OVCAR-8 ovarian) of over 100 µM. For the same compound, the TGI (RPMI-8226 leukemia) was over 100 µM, the TGI (RXF 393 renal) was over 100 µM and the TGI (RXF-631 renal) was over 100 µM. For the same compound, the TGI (SF-268 CNS) was over 100 µM, the TGI (SF-295 CNS) was over 100 µM and the TGI (SF-539 CNS) was over 100 µM. For the same compound, the TGI (SK-MEL-28 melanoma) was over 100 µM, the TGI (SK-MEL-5 melanoma) was over 100 µM and the TGI (SK-OV-3 ovarian) was over 100 µM. The TGI (SN12C renal) was over 100 µM, the TGI (SNB-19 CNS) was over 100 µM and the TGI (SNB-75 CNS) was over 100 µM. It also gave a TGI (SR leukemia) of over 100 µM, a TGI (SW-620 colon) of over 100 µM and a TGI (TK-10 renal) of over 100 µM. The TGI (U251 CNS) was over 100 µM, the TGI (UACC-257 melanoma) was over 100 µM and the TGI (UACC-62 melanoma) was over 100 µM. The TGI (UO-31 renal) was over 100 µM and the TGI (XF 498 CNS) was over 100 µM.
